# Compound: C1CCC(CC1)N(CCNCCC2=C3C(=C(C=C2)O)NC(=O)CO3)C(=O)CCNCCC4=CC(=C(C=C4)Cl)Cl [AZ505] + N=C(N)NC(=N)NCCc1ccccc1 [Phenformin] (partner 250 µM)
# Assay: relative viability (nuclei count vs DMSO), 5 days (fraction); higher = more cells survive
# Settings: first compound 0.08 µM
# How it was run: (§1)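 A single step with final 0.05% Triton X-100, 1% formaldehyde and 1 ug/ml Hoechst fixed the cells and stained nuclei 5 days after treatment. Lung cancer cell lines in 1536-well plates had been treated by pin tool the day after seeding with one drug alone or a fixed anchor-drug dose plus five library-drug doses (not always all listed) in √10 steps, and nuclei were counted on 4× images. Relative viability is the ratio of nuclei in treated wells to nuclei in vehicle wells, taken as the median of duplicate plates.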
row,Cell Line,relative viability
1,LCLC-103H,0.321
2,NCI-H520,0.556
3,NCI-H2126,0.466
4,EMC-BAC-2,0.497
5,NCI-H2085,0.68
6,HCC-366,0.577
7,NCI-H1666,0.56
8,NCI-H596,0.619
9,LK-2,0.387
10,NCI-H2087,0.389
11,SK-MES-1,0.485
12,H3255,0.303
13,COR-L23,0.446
14,COR-L 105,0.451
15,LOU-NH91,0.685
16,ChaGo-K-1,0.486
17,NCI-H2170,0.396
18,NCI-H2405,0.278
19,A549,0.15
20,NCI-H1563,0.626

# Same assay, conditions: first compound 0.253 µM
row,Cell Line,relative viability
1,NCI-H2342,0.559
2,NCI-H1623,0.504
3,NCI-H727,0.461
4,NCI-H1650,0.4
5,NCI-H1993,0.426
6,SK-LU-1,0.345
7,NCI-H838,0.491
8,LCLC-103H,0.292
9,NCI-H520,0.49
10,NCI-H2126,0.537
11,EMC-BAC-2,0.593
12,NCI-H2085,0.613
13,HCC-366,0.632
14,NCI-H1666,0.599
15,NCI-H596,0.833
16,LK-2,0.43
17,NCI-H2087,0.35
18,SK-MES-1,0.618
19,H3255,0.377
20,COR-L23,0.463
21,COR-L 105,0.454
22,LOU-NH91,0.684
23,ChaGo-K-1,0.521
24,NCI-H2170,0.42
25,NCI-H2405,0.214
26,A549,0.19
27,NCI-H1563,0.646

# Same assay, conditions: first compound 0.8 µM
row,Cell Line,relative viability
1,NCI-H2342,0.733
2,NCI-H1623,0.621
3,NCI-H727,0.525
4,NCI-H1650,0.423
5,NCI-H1993,0.546
6,SK-LU-1,0.33
7,NCI-H838,0.49
8,LCLC-103H,0.318
9,NCI-H520,0.683
10,NCI-H2126,0.491
11,EMC-BAC-2,0.496
12,NCI-H2085,0.664
13,HCC-366,0.572
14,NCI-H1666,0.587
15,NCI-H596,0.859
16,LK-2,0.514
17,NCI-H2087,0.395
18,SK-MES-1,0.643
19,H3255,0.379
20,COR-L23,0.383
21,COR-L 105,0.547
22,LOU-NH91,0.604
23,ChaGo-K-1,0.5
24,NCI-H2170,0.397
25,NCI-H2405,0.31
26,A549,0.145
27,NCI-H1563,0.696

# Same assay, conditions: first compound 2.53 µM
row,Cell Line,relative viability
1,NCI-H2342,0.697
2,NCI-H1623,0.509
3,NCI-H1650,0.405
4,NCI-H1993,0.56
5,SK-LU-1,0.394
6,NCI-H838,0.466
7,LCLC-103H,0.381
8,NCI-H520,0.825
9,NCI-H2126,0.526
10,EMC-BAC-2,0.508
11,NCI-H2085,0.677
12,HCC-366,0.56
13,NCI-H1666,0.557
14,NCI-H596,0.719
15,LK-2,0.713
16,NCI-H2087,0.396
17,SK-MES-1,0.67
18,H3255,0.321
19,COR-L23,0.442
20,COR-L 105,0.473
21,LOU-NH91,0.805
22,ChaGo-K-1,0.514
23,NCI-H2170,0.405
24,NCI-H2405,0.218
25,A549,0.113
26,NCI-H1563,0.664

# Same assay, conditions: first compound 8 µM
row,Cell Line,relative viability
1,NCI-H2342,0.677
2,NCI-H1623,0.629
3,NCI-H727,0.613
4,NCI-H1650,0.463
5,NCI-H1993,0.478
6,SK-LU-1,0.379
7,NCI-H838,0.579
8,LCLC-103H,0.378
9,NCI-H520,0.529
10,NCI-H2126,0.538
11,EMC-BAC-2,0.487
12,NCI-H2085,0.694
13,HCC-366,0.582
14,NCI-H1666,0.483
15,NCI-H596,0.754
16,LK-2,0.427
17,NCI-H2087,0.471
18,SK-MES-1,0.601
19,H3255,0.38
20,COR-L23,0.441
21,COR-L 105,0.583
22,LOU-NH91,0.729
23,ChaGo-K-1,0.458
24,NCI-H2170,0.421
25,NCI-H2405,0.263
26,A549,0.166
27,NCI-H1563,0.666

# Compound: C1CCC(CC1)N(CCNCCC2=C3C(=C(C=C2)O)NC(=O)CO3)C(=O)CCNCCC4=CC(=C(C=C4)Cl)Cl [AZ505] + COc1cccc2cc(-c3nc([C@H]4CC[C@H](C(=O)O)CC4)n4ncnc(N)c34)[nH]c12 [OSI-027] (partner 0.5 µM)
# Assay: as above
# Settings: first compound 0.08 µM
# How it was run: as §1
row,Cell Line,relative viability
1,NCI-H2342,0.604
2,NCI-H1623,0.423
3,NCI-H727,0.388

# Reference: the supplement of paper PMC10307832
